This is an account of results in patent US20250162973A1, “METHODS OF SYNTHESIS AND USES OF AGRIMOL COMPOUNDS” (Versitech Limited, priority 2022, published 2025).

What all share (assay type): cell-based, human
Experiment [1] concerns AGS cell line. Put plainly: MTT cell viability assay. The conditions noted are these: Homo sapiens, AGS; MTT method, 48 h. Here is the method: (§1) SUNE1 (nasopharyngeal carcinoma), AGS (gastric adenocarcinoma), HeLa (cervix adenocarcinoma), HepG2 (hepatocellular carcinoma), U-87 MG (human glioblastoma cell), U2OS (osteosarcoma), MCF-7 (breast adenocarcinoma), MDA-MB-231 (breast adenocarcinoma), HCT116 (colorectal carcinoma), SW480 (colorectal adenocarcinoma), NCI-H460 (large cell lung carcinoma), NCI-H1650 (adenocarcinoma lung carcinoma), HCC827 (adenocarcinoma lung carcinoma), A549 (lung carcinoma), and CCD-19Lu (human lung fibroblast normal cell) were all obtained from American Type Culture Collection (ATCC, Manassas, VA, USA). Minimum Essential Media (MEM, Gibco®, ThermoFisher Scientific), Dulbecco's Modified Eagle Medium (DMEM, Gibco®, ThermoFisher Scientific), and RPMI-1640 Medium (Gibco®, ThermoFisher Scientific) supplemented with 10% Fetal Bovine Serum (Gibco®, ThermoFisher Scientific), and 100 U/mL penicillin-streptomycin (Gibco™, ThermoFisher Scientific) were used for cell culture. Cells were placed into an incubator with 5% CO2 that temperature was set at 37° C. For subculturing cells, 0.05% Trypsin-EDTA (Gibco®) was used for detaching and a subcultivation ratio of 1:5 was used.
(§2) The cell viability assay was performed by a typical MTT assay. Briefly, 5*10^3 cells were seeded in the 96-well flat bottom plate and allowed to attach overnight. After drug treatment with a serial dilution from 100 μM for 48 h, 10 μL of MTT solution (5 mg/ml prepared in PBS, filtered) was added into each well and incubate for 4 h at 37° C. The formed formazan was then dissolved with SDS solution (10% SDS in 10 mM HCl) and followed the determination of absorbance at 590 nm by a microplate reader. The change in cell viability was then calculated for each drug concentration, then normalized to control. Dose response curves from each assay were fit to a Boltzmann sigmoidal function (GraphPad Prism8, version8.0.0). The cytotoxicity of AGB and its derivatives was determined by the calculation of IC50 value (half maximal inhibitory concentration) from fitted curves, which was the concentration of drug induced 50% cell viability.

In experiment [2] the test system is H460 cell line. As to the kind of experiment: MTT cell viability assay. The conditions noted are these: Homo sapiens, NCI-H460. Here is the method: as §1, §2
Experiment [3] deals with HeLa cell line. As to the kind of experiment: MTT cell viability assay. The conditions noted are these: Homo sapiens, HeLa; MTT method, 48 h; read-out: IC50 HeLa cell line. As to the method: as §1, §2
Experiment [4] relates to MDA-MB-231 cell line. As to the kind of experiment: MTT cell viability assay. The conditions noted are these: Homo sapiens, MDA-MB-231; MTT method, 48 h. Here is the method: as §1, §2
For experiment [5], the system named is NCI-H460 cells. Put plainly: Apoptosis assays (Hoechst, annexin V/PI, Western blotting). As to the method: FIG. 4 is a graph showing AGB induced apoptosis in NCI-H460 cells by the Annexin-V/PI double-staining assay. After treating with AGB for 24 h and 36 h, respectively, cells were stained with annexin V-FITC and propidium iodide and analyzed by flow cytometry.
The mitochondrial fission and mitochondrial membrane potential depolarization are involved in the induction of cell apoptosis and also play a central role to the apoptotic pathway. Therefore, several apoptosis assays were performed. […] Induction of apoptosis by AGB in NCI-H460 cells was further supported through monitoring PARP, caspase-9, and caspase-3 cleavage as well as through changes in the levels of a panel of proteins commonly involved in apoptotic signaling via Western blotting experiments (data not shown).

Like-named read-outs stand apart in the source and are kept apart here.

On to `CCCC(=O)c1c(O)c(Cc2c(O)c(Cc3c(O)c(C)c(OC)c(C(=O)CCC)c3O)c(O)c(C(=O)[C@@H](C)CC)c2O)c(O)c(C)c1OC` [AGB, Agrimol B], for which the IC50 in experiment [1] came out at 2650 nM; in experiment [2] (MTT method, 48 h, read-out: IC50 H460 cell line) it was 1850 nM; in experiment [2] (for 48 h, cell line not given, read-out: IC50 value of AGB) it was 2300 nM; in experiment [3] it was 810 nM; in experiment [4], 2160 nM. Further, the Hoechst staining result in experiment [5] was “chromatin condensation and fragmentation”. In addition, the “release of mitochondrial factors to cytosol” value in experiment [5] is “release of cytochrome c and apoptosis inducing factor AIF”. For the same compound, the “annexin V and PI flow cytometry” value in experiment [5] (24 h and 36 h AGB treatment) is “increase of the early and late apoptotic cell populations”.
